According to article doi:10.1101/2023.03.24.534094v2 (biorxiv, 2023):
Like-named read-outs stand apart in the source and are kept apart here.

Experiments:
Test in all cases: biochemical
[1] = target: T1, CASK (Homo sapiens, UniProt O14936)
T1 sequence (O14936 1-926): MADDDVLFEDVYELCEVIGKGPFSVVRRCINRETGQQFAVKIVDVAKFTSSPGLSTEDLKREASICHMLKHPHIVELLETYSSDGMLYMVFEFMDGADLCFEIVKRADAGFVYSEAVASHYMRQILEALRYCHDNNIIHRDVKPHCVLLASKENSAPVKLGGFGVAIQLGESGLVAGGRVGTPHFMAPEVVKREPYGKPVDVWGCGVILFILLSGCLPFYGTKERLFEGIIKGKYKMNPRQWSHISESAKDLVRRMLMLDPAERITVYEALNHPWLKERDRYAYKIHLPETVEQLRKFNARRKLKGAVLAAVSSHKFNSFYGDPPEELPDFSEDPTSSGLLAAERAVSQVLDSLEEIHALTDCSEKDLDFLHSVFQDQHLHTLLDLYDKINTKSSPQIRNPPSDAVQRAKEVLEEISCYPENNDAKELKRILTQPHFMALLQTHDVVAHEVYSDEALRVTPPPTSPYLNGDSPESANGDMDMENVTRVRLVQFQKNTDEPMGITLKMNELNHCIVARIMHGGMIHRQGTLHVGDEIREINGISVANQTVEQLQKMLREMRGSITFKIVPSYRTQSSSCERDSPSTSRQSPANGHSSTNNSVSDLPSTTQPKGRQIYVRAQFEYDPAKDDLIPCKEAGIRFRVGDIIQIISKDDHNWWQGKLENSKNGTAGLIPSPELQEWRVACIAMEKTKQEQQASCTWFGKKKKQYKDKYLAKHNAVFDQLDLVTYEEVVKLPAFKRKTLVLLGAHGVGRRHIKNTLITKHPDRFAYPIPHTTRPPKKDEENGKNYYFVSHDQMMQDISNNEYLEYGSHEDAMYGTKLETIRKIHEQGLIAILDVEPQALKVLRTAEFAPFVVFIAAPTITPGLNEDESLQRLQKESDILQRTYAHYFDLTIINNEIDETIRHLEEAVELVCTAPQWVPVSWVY

[2] = target: CK2a1 (Homo sapiens, UniProt P68400)
CK2a1, sequence (P68400 whole entry): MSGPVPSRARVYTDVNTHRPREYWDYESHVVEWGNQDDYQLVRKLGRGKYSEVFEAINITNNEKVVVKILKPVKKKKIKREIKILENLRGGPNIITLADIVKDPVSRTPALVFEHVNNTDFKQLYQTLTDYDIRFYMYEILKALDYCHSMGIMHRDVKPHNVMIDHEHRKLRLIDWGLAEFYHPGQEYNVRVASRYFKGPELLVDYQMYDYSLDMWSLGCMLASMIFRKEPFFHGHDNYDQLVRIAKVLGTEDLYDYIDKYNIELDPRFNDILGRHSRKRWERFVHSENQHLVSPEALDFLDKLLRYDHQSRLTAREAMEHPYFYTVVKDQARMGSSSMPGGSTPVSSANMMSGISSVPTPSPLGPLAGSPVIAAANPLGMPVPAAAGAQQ

[3] = target: CaMK1g (Homo sapiens, UniProt Q96NX5)
CaMK1g, sequence (Q96NX5 whole entry): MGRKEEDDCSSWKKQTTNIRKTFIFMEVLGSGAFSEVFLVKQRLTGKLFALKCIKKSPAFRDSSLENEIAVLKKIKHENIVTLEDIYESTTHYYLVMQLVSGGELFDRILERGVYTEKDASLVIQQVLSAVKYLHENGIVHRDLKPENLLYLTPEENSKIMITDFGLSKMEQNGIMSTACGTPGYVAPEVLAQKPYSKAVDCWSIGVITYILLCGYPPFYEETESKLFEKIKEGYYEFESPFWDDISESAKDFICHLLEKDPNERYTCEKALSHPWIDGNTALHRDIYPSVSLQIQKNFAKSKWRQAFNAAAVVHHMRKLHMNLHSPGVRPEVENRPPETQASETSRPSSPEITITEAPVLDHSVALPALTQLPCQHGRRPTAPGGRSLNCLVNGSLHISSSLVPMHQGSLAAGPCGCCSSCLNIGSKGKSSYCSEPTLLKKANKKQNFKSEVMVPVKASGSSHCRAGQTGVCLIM

[4] = target: T2, DYRK2 (Homo sapiens, UniProt Q92630)
T2 sequence (Q92630 1-601): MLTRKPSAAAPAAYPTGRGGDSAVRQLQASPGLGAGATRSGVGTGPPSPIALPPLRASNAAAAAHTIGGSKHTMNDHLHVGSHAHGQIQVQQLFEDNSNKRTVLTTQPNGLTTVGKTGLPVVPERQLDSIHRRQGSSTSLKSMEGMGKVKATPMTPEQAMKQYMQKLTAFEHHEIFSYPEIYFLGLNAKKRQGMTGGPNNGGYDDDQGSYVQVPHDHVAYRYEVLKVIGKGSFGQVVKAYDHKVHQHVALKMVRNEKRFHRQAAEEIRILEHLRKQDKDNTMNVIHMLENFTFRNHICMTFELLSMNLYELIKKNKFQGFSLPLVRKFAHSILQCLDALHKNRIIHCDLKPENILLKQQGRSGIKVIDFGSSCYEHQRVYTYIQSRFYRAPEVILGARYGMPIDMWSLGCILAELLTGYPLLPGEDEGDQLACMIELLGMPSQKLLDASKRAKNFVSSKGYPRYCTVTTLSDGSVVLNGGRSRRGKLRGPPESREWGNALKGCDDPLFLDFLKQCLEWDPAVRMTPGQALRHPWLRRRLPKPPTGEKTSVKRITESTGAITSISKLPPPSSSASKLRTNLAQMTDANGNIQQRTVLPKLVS

[5] = target: Erk2 (Homo sapiens, UniProt P28482)
Erk2, sequence (P28482 whole entry): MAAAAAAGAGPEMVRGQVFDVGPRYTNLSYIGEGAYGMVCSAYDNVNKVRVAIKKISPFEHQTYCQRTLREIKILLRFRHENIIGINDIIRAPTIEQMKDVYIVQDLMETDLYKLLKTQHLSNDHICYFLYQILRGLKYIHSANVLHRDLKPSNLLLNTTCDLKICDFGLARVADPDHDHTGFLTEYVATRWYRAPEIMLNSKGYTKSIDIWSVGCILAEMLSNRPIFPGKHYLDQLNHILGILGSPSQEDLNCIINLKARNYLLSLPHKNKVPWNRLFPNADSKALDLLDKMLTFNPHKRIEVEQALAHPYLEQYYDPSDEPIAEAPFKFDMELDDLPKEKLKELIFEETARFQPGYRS

[6] = target: MAPKAPK2 (Homo sapiens, UniProt P49137)
MAPKAPK2, sequence (P49137 whole entry): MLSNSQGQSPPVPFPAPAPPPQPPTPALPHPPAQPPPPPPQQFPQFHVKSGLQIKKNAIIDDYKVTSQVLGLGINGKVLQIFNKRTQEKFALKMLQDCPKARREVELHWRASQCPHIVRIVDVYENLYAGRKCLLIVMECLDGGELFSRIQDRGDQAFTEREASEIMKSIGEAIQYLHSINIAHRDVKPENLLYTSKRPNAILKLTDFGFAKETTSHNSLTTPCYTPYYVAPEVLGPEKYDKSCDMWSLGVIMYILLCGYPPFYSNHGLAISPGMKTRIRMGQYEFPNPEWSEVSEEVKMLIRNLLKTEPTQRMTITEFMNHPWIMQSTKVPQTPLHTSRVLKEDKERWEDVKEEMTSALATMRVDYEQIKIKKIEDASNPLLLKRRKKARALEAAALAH

[7] = target: PIM1 (Homo sapiens, UniProt P11309)
PIM1, sequence (P11309 whole entry): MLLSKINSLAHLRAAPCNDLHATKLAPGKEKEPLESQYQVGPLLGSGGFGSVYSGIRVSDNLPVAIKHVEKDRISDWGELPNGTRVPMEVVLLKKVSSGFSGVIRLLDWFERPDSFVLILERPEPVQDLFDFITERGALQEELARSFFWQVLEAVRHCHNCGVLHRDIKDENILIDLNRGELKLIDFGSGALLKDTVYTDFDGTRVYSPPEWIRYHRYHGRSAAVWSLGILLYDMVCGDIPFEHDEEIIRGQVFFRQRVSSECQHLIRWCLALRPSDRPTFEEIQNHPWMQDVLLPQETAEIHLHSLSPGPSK

[8] = target: RSK1b (Homo sapiens, UniProt Q15418)
RSK1b, sequence (Q15418 whole entry): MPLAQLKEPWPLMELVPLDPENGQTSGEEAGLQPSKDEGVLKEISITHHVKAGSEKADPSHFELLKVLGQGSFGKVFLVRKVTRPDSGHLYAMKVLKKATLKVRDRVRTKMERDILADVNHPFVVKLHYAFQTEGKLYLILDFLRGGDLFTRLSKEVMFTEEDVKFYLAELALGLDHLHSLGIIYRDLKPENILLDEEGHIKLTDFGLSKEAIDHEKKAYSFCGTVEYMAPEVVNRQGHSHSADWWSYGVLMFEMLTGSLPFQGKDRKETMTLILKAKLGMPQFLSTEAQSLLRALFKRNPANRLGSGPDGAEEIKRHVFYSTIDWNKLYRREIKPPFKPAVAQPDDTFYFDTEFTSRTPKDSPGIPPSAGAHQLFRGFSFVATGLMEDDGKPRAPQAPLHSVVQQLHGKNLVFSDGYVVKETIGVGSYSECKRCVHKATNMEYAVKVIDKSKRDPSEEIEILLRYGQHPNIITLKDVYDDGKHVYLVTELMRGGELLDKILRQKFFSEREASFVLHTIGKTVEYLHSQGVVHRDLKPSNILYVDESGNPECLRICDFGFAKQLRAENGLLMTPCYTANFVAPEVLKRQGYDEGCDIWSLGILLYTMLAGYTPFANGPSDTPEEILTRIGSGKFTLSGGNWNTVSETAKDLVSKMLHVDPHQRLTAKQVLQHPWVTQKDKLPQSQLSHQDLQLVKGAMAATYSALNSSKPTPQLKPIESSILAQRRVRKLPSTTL

[9] = target: T3, TTK (Homo sapiens, UniProt P33981)
T3 sequence (P33981 1-857): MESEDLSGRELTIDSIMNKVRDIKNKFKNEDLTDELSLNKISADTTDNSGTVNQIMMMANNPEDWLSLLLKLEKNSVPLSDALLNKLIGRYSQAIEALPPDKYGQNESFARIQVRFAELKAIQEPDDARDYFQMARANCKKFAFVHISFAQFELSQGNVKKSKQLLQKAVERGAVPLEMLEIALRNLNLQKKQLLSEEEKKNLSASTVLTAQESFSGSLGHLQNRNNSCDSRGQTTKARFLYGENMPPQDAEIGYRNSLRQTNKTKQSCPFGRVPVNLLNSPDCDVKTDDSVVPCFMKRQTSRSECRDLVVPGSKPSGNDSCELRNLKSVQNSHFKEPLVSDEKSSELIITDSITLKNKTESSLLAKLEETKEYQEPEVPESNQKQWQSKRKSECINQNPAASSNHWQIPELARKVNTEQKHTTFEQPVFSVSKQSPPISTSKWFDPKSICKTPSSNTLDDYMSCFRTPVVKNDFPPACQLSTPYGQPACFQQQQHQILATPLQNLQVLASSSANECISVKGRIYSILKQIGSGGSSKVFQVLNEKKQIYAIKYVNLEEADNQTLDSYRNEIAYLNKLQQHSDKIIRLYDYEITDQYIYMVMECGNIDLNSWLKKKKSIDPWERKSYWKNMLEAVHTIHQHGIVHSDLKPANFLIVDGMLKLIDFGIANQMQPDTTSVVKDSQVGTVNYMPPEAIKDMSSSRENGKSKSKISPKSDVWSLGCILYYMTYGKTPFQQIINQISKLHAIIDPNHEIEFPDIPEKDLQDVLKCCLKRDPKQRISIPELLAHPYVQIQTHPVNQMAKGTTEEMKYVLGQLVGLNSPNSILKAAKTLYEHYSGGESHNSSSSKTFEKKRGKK

CNc1ncc2cc(-c3ccc(-c4cccc(C)n4)cc3Cl)c(=O)n(CC3OCC(N)CO3)c2n1 (stereo not drawn) [compound 2, G-5555]
dTm G-5555 (2) ([1]; 10 µM, binder): -0.8 °C
dTm G-5555 (2) ([2]; 10 µM, binder): 0.1 °C
dTm G-5555 (2) ([3]; 10 µM, binder): 2.3 °C
dTm G-5555 (2) ([4]; 10 µM, binder): -0.1 °C
dTm G-5555 (2) ([5]; 10 µM, binder): 1.4 °C
dTm G-5555 (2) ([6]; 10 µM, binder): -0.3 °C
dTm G-5555 (2) ([7]; 10 µM, binder): -1.6 °C
dTm G-5555 (2) ([8]; 10 µM, binder): 0.0 °C
dTm G-5555 (2) ([9]; 10 µM, binder): 1.5 °C

CNc1ncc2cc(-c3cc(Br)ccc3Cl)c(=O)n(CCCCN)c2n1 [compound 6, 8-(4-Aminobutyl)-6-(5-bromo-2-chlorophenyl)-2-(methylamino)pyrido[2,3-d]pyrimidin-7(8H)-one]
ΔTm at 10 µM ([1]; read-out: dTm 6): -0.3 °C
ΔTm at 10 µM ([2]; read-out: dTm 6): 0.2 °C
ΔTm at 10 µM ([3]; read-out: dTm 6): 1.2 °C
ΔTm at 10 µM ([4]; read-out: dTm 6): -0.1 °C
ΔTm at 10 µM ([5]; read-out: dTm 6): 0 °C
ΔTm at 10 µM ([6]; read-out: dTm 6): -0.7 °C
ΔTm at 10 µM ([7]; read-out: dTm 6): 1.2 °C
ΔTm at 10 µM ([8]; read-out: dTm 6): 6.3 °C
ΔTm at 10 µM ([9]; read-out: dTm 6): 0.2 °C

CNc1ncc2cc(-c3cc(F)ccc3F)c(=O)n(CCCCN)c2n1 [compound 5, 8-(4-Aminobutyl)-6-(2,5-difluorophenyl)-2-(methylamino)pyrido[2,3-d]pyrimidin-7(8H)-one]
ΔTm at 10 µM ([1]; read-out: dTm MR22 (5)): -0.4 °C
ΔTm at 10 µM ([2]; read-out: dTm MR22 (5)): 0.4 °C
ΔTm at 10 µM ([3]; read-out: dTm MR22 (5)): -0.4 °C
ΔTm at 10 µM ([4]; read-out: dTm MR22 (5)): 0.2 °C
ΔTm at 10 µM ([5]; read-out: dTm MR22 (5)): -3.7 °C
ΔTm at 10 µM ([6]; read-out: dTm MR22 (5)): -0.1 °C
ΔTm at 10 µM ([7]; read-out: dTm MR22 (5)): 1.1 °C
ΔTm at 10 µM ([8]; read-out: dTm MR22 (5)): 5.4 °C
ΔTm at 10 µM ([9]; read-out: dTm MR22 (5)): -2.6 °C

CNc1ncc2cc(-c3ccccc3Cl)c(=O)n(CCCCN)c2n1 [compound 4, 8-(4-Aminobutyl)-6-(2-chlorophenyl)-2-(methylamino)pyrido[2,3-d]pyrimidin-7(8H)-one]
ΔTm at 10 µM ([1]; read-out: dTm MR21 (4)): 0 °C
ΔTm at 10 µM ([2]; read-out: dTm MR21 (4)): -0.4 °C
ΔTm at 10 µM ([3]; read-out: dTm MR21 (4)): -0.1 °C
ΔTm at 10 µM ([4]; read-out: dTm MR21 (4)): 0 °C
ΔTm at 10 µM ([5]; read-out: dTm MR21 (4)): 1 °C
ΔTm at 10 µM ([6]; read-out: dTm MR21 (4)): 0.1 °C
ΔTm at 10 µM ([7]; read-out: dTm MR21 (4)): 0.4 °C
ΔTm at 10 µM ([8]; read-out: dTm MR21 (4)): 5.8 °C
ΔTm at 10 µM ([9]; read-out: dTm MR21 (4)): 0.9 °C

CNc1ncc2cc(-c3cc(Br)ccc3Cl)c(=O)n(C[C@H]3OC[C@H](N)CO3)c2n1 [compound 7, 8-(((2r,5r)-5-Amino-1,3-dioxan-2-yl)methyl)-6-(5-bromo-2-chlorophenyl)-2-(methylamino)pyrido[2,3-d]pyrimidin-7(8H)-one]
ΔTm at 10 µM ([1]; read-out: dTm 7): -0.1 °C
ΔTm at 10 µM ([2]; read-out: dTm 7): 0.4 °C
ΔTm at 10 µM ([3]; read-out: dTm 7): 0.3 °C
ΔTm at 10 µM ([4]; read-out: dTm 7): 0 °C
ΔTm at 10 µM ([5]; read-out: dTm 7): 0 °C
ΔTm at 10 µM ([6]; read-out: dTm 7): 0 °C
ΔTm at 10 µM ([7]; read-out: dTm 7): 0.6 °C
ΔTm at 10 µM ([8]; read-out: dTm 7): 5.1 °C
ΔTm at 10 µM ([9]; read-out: dTm 7): -0.2 °C
